Measured values reported in patent US8916599B2, “1H-benz imidazole-5-carboxamides as anti-inflammatory agents” (Orexo AB, priority 2008, dated 2014).

The compounds below were run against T1, recombinant human mPGES-1 (Homo sapiens, UniProt O14684) (assay: mPGES-1 inhibition test (microsomes, PGH2 substrate, HTRF detection of PGE2)). Details: inhibition of mPGES-1 at 10 μM.
T1 construct: made in house; host or cells: Rosetta E. coli (microsomal/membrane fraction)
T1 sequence (O14684 1-152): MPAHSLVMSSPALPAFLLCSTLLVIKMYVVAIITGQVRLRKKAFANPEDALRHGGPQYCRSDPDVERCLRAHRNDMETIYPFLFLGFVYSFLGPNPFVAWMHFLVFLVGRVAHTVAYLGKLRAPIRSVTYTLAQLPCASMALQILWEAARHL
Type: biochemical
Outline: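 Microsomes from E. coli Rosetta expressing the enzyme, in 0.1 M KPi pH 7.4 with 2.5 mM GSH, were preincubated 25 min at room temperature with inhibitor in DMSO. PGH2 was added, the reaction stopped after one minute with acidified FeCl2, and PGE2 quantified by HTRF after 750-fold dilution.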

inhibition at 10 µM	Compound
100%	Cn1c(Nc2c(Cl)cccc2Cl)nc2cc(C(=O)N[C@H]3CC[C@@H](C(F)(F)F)CC3)c(F)cc21 [Example 170, 2-(2,6-Dichloro-phenylamino)-6-fluoro-1-methyl-1H-benzimidazole-5-carboxylic acid (cis-4-trifluoromethyl-cyclohexyl)-amide]
94%	Cn1c(Nc2c(F)cccc2F)nc2cc(C(=O)N[C@H]3CC[C@H](C(F)(F)F)CC3)ccc21 [Example 171, 2-(2,6-Difluoro-phenylamino)-1-methyl-1H-benzimidazole-5-carboxylic acid (trans-4-trifluoromethyl-cyclohexyl)-amide]
97%	Cn1c(Nc2c(F)cccc2F)nc2cc(C(=O)NC3CCC(C)(C)CC3)ccc21 [Example 172, 2-(2,6-Difluoro-phenylamino)-1-methyl-1H-benzimidazole-5-carboxylic acid (4,4-dimethyl-cyclohexyl)-amide]
97%	Cn1c(Nc2c(F)cccc2F)nc2cc(C(=O)Nc3ccc(Br)cc3)ccc21 [Example 173, 2-(2,6-Difluoro-phenylamino)-1-methyl-1H-benzimidazole-5-carboxylic acid (4-bromo-phenyl)-amide]
100%	C[C@@H]1CCC(NC(=O)c2cc3nc(Nc4c(Cl)cccc4Cl)n(C)c3cc2F)C1 (stereo partly drawn) [Example 175, 2-(2,6-Dichloro-phenylamino)-6-fluoro-1-methyl-1H-benzimidazole-5-carboxylic acid ((3R)-3-methyl-cyclopentyl)-amide]
98%	COCCn1c(Nc2c(Cl)cccc2Cl)nc2cc(C(=O)NC3CCC(C)(C)CC3)ccc21 [Example 180, 2-(2,6-Dichloro-phenylamino)-1-(2-methoxy-ethyl)-1H-benzimidazole-5-carboxylic acid (4,4-dimethyl-cyclohexyl)-amide]
100%	COCCn1c(Nc2c(Cl)cccc2Cl)nc2cc(C(=O)Nc3cccc(Cl)c3)ccc21 [Example 181, 2-(2,6-Dichloro-phenylamino)-1-(2-methoxy-ethyl)-1H-benzimidazole-5-carboxylic acid (3-chloro-phenyl)-amide]
99%	Cc1cc(NC(=O)c2ccc3[nH]c(Nc4c(Cl)cccc4Cl)nc3c2)ncc1Br [Example 182, 2-(2,6-Dichloro-phenylamino)-1H-benzimidazole-5-carboxylic acid (5-bromo-4-methyl-pyridin-2-yl)-amide]
100%	Cc1cc(Br)cnc1NC(=O)c1ccc2[nH]c(Nc3c(Cl)cccc3Cl)nc2c1 [Example 183, 2-(2,6-Dichloro-phenylamino)-1H-benzimidazole-5-carboxylic acid (5-bromo-3-methyl-pyridin-2-yl)-amide]
98%	O=C(Nc1cc(Br)ccn1)c1ccc2[nH]c(Nc3c(Cl)cccc3Cl)nc2c1 [Example 184, 2-(2,6-Dichloro-phenylamino)-1H-benzimidazole-5-carboxylic acid (4-bromo-pyridin-2-yl)-amide]
98%	O=C(Nc1cccc(Cl)n1)c1ccc2[nH]c(Nc3c(Cl)cccc3Cl)nc2c1 [Example 185, 2-(2,6-Dichloro-phenylamino)-1H-benzimidazole-5-carboxylic acid (6-chloro-pyridin-2-yl)-amide]
91%	O=C(Nc1ncccc1Cl)c1ccc2[nH]c(Nc3c(Cl)cccc3Cl)nc2c1 [Example 186, 2-(2,6-Dichloro-phenylamino)-1H-benzimidazole-5-carboxylic acid (3-chloro-pyridin-2-yl)-amide]
98%	O=C(Nc1cc(Cl)nc(Cl)c1)c1ccc2[nH]c(Nc3c(Cl)cccc3Cl)nc2c1 [Example 187, 2-(2,6-Dichloro-phenylamino)-1H-benzimidazole-5-carboxylic acid (2,6-dichloro-pyridin-4-yl)-amide]
96%	COc1ccnc(NC(=O)c2ccc3[nH]c(Nc4c(Cl)cccc4Cl)nc3c2)c1 [Example 188, 2-(2,6-Dichloro-phenylamino)-1H-benzimidazole-5-carboxylic acid (4-methoxy-pyridin-2-yl)-amide]
